These results are taken from US8471005B2 (Cephalon, Inc., priority 2008, dated 2013).

Each structure is given as a SMILES string.

In experiment [1] the target is T1, ALK (Homo sapiens, UniProt Q9UM73).
T1 construct: host or cells: baculovirus expression system
Briefly: ALK Kinase Assay (ELISA/TRF, PLC-γ substrate). The class given is biochemical. The following applies: ALK kinase inhibition, 1 μM ATP; read-out: ALK Potency. Put shortly:
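Read-out is time-resolved fluorescence from a Eu-N1-labeled PT66 antibody that binds phosphorylated PLC-γ, the substrate coated at 10 μg/mL in TBS. ALK at 30 ng/ml starts the reaction, which runs 15 minutes at 37° C.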

For experiment [2], the target named is T2, JAK2 (Homo sapiens, UniProt O60674).
T2 construct: host or cells: baculovirus expression system
T2 sequence (O60674 whole entry): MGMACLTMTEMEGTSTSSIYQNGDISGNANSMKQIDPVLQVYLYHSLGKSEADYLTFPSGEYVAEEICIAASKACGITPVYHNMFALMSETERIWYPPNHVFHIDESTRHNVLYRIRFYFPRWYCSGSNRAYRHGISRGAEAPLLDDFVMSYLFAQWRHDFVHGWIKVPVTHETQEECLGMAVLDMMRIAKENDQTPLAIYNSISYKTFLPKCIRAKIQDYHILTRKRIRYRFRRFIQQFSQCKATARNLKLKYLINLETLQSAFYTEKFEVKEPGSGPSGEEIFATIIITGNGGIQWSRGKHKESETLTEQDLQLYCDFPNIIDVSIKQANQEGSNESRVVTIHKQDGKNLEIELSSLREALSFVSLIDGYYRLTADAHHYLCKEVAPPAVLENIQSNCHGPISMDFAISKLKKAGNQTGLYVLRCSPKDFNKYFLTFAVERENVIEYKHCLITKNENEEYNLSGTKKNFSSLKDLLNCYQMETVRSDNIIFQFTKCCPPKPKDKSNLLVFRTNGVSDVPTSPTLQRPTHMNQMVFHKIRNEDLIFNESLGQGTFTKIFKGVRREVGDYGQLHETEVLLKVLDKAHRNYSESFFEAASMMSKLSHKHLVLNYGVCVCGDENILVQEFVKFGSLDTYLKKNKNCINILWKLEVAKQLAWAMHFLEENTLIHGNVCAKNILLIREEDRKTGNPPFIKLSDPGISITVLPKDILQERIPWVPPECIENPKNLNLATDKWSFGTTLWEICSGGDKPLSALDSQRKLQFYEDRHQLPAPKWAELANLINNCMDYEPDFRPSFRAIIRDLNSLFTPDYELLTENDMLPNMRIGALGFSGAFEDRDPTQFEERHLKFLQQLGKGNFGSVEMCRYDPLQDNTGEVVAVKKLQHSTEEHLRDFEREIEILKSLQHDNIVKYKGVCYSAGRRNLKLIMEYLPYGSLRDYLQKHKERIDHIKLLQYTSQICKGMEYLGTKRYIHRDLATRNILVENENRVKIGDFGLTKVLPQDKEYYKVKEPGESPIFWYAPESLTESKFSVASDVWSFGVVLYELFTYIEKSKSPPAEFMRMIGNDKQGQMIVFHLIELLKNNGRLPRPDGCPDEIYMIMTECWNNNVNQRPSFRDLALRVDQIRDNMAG
Briefly: Recombinant Human JAK2 Kinase Assay (TRF). The settings on record: JAK2 kinase inhibition, 0.2 μM ATP; read-out: JAK2 Potency. Format: biochemical. Put shortly: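 Baculovirus-expressed JAK2 (15 ng/ml) phosphorylated a biotinylated 15-mer peptide captured on Neutravidin-coated plates, in 20 mM HEPES pH 7.2 with 0.2 μM ATP, 1 mM MnCl2, 0.1% BSA and 2.5% DMSO. Reaction ran 20 min at room temperature; phosphopeptide was detected by time-resolved fluorescence with Eu-N1-labelled PY100 antibody.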

T1 sequence (Q9UM73 19-1620): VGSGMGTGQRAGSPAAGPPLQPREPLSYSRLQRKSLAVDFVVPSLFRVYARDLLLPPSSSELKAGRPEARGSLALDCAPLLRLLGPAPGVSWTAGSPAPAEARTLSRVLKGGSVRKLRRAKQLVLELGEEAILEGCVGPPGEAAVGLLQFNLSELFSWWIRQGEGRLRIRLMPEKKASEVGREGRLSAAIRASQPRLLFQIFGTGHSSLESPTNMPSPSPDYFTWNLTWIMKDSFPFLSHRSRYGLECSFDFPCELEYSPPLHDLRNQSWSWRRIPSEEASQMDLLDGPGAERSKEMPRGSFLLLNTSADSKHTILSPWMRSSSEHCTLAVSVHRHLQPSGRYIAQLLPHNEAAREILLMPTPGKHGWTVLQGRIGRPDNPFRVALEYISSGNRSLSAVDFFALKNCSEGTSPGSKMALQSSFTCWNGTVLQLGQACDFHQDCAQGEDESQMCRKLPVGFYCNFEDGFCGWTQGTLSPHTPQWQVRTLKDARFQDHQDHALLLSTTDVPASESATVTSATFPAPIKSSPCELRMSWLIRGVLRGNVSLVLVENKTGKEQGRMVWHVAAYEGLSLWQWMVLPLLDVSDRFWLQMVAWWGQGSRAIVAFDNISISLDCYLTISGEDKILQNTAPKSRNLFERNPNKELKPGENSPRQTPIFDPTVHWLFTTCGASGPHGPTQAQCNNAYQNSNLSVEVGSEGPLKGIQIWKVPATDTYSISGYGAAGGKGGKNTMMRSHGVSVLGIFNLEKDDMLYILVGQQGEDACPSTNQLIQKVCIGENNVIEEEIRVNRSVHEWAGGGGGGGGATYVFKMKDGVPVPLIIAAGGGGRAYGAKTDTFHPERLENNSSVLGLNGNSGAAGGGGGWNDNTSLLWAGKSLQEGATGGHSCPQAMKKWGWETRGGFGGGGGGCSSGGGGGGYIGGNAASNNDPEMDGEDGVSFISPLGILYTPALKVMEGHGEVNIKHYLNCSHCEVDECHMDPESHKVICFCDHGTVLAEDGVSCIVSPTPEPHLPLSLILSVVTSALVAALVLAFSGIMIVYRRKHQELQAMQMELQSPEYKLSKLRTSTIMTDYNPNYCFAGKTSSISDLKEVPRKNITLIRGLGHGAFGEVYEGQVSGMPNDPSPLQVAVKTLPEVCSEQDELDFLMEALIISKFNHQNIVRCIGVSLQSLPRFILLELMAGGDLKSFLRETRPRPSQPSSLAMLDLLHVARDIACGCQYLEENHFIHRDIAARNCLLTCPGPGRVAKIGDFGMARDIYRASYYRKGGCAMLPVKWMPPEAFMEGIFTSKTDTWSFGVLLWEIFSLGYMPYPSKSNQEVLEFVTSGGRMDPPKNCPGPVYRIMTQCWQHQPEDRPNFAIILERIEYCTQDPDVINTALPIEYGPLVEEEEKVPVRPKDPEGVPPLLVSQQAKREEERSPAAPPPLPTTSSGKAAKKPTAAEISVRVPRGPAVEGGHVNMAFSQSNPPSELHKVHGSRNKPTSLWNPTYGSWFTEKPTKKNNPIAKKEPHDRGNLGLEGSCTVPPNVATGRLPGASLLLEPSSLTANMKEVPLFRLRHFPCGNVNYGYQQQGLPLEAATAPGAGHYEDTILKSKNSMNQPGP

Take `COc1cc(C2CCN(CC(=O)N(C)C)CC2)ccc1Nc1ncc2ccc(-c3ccccc3OC)n2n1` [Example 811, 2-(4-{3-Methoxy-4-[7-(2-methoxy-phenyl)-pyrrolo[2,1-f][1,2,4]triazin-2-ylamino]-phenyl}-piperidin-1-yl)-N,N-dimethyl-acetamide]: the IC50 in experiment [1] was less than 0.1 µM; in experiment [2] it was 0.1 to 1 µM.

For `COc1cc(C2CCN(CC(N)=O)CC2)ccc1Nc1ncc2ccc(-c3ccccc3N(C)S(C)(=O)=O)n2n1` [Example 812, 2-[4-(4-{7-[2-(Methanesulfonyl-methyl-amino)-phenyl]-pyrrolo[2,1-f][1,2,4]triazin-2-ylamino}-3-methoxy-phenyl)-piperidin-1-yl]-acetamide], the figures for the IC50 in experiment [1] and in experiment [2] were less than 0.1 µM and 0.1 to 1 µM, respectively.

Consider `COc1cc(C2CCN(C(=O)CN(C)C)CC2)ccc1Nc1ncc2ccc(-c3ccccc3N(C)S(C)(=O)=O)n2n1` [Example 813, N-[2-(2-{4-[1-(2-Dimethylamino-acetyl)-piperidin-4-yl]-2-methoxy-phenylamino}-pyrrolo[2,1-f][1,2,4]triazin-7-yl)-phenyl]-N-methyl-methanesulfonamide], for which the IC50 in experiment [1] was less than 0.1 µM; in experiment [2] it was 1 to 10 µM.

In the case of `COc1cc(C2CCN(CC(N)=O)CC2)ccc1Nc1ncc2ccc(-c3ccccc3OC)n2n1` [Example 814, 2-(4-{3-Methoxy-4-[7-(2-methoxy-phenyl)-pyrrolo[2,1-f][1,2,4]triazin-2-ylamino]-phenyl}-piperidin-1-yl)-acetamide], the IC50 in experiment [1] is less than 0.1 µM; in experiment [2], 0.1 to 1 µM.

Consider `COc1cc(C2CCN(C(=O)CN(C)C)CC2)ccc1Nc1ncc2ccc(-c3ccccc3OC)n2n1` [Example 815, 2-Dimethylamino-1-(4-{3-methoxy-4-[7-(2-methoxy-phenyl)-pyrrolo[2,1-f][1,2,4]triazin-2-ylamino]-phenyl}-piperidin-1-yl)-ethanone], for which the IC50 in experiment [1] was less than 0.1 µM; in experiment [2] it was 0.1 to 1 µM.

As for `COc1cc2c(cc1Nc1ncc3ccc(-c4ccccc4OC)n3n1)CN(C)C2` [Example 816, (6-Methoxy-2-methyl-2,3-dihydro-1H-isoindol-5-yl)-[7-(2-methoxy-phenyl)-pyrrolo[2,1-f][1,2,4]triazin-2-yl]-amine], the IC50 in experiment [1] and in experiment [2] was less than 0.1 µM in each case.

As to `COc1cc(C2CCN(C(=O)OC(C)(C)C)CC2)ccc1Nc1ncc2ccc(-c3ccccc3OC)n2n1` [Example 817, 4-{3-Methoxy-4-[7-(2-methoxy-phenyl)-pyrrolo[2,1-f][1,2,4]triazin-2-ylamino]-phenyl}-piperidine-1-carboxylic acid tert-butyl ester], the IC50 in experiment [1] and in experiment [2] was greater than 10 µM each time.

Take `COc1cc(C2CCN(C(=O)OC(C)(C)C)CC2)ccc1Nc1ncc2ccc(-c3ccccc3N(C)S(C)(=O)=O)n2n1` [Example 818, 4-(4-{7-[2-(Methanesulfonyl-methyl-amino)-phenyl]-pyrrolo[2,1-f][1,2,4]triazin-2-ylamino}-3-methoxy-phenyl)-piperidine-1-carboxylic acid tert-butyl ester]: the IC50 in experiment [1] was 0.1 to 1 µM; in experiment [2], greater than 10 µM.

For `COc1cc(C2CCNCC2)ccc1Nc1ncc2ccc(-c3ccccc3N(C)S(C)(=O)=O)n2n1` [Example 819, N-{2-[2-(2-Methoxy-4-piperidin-4-yl-phenylamino)-pyrrolo[2,1-f][1,2,4]triazin-7-yl]-phenyl}-N-methyl-methanesulfonamide], the IC50 is less than 0.1 µM in experiment [1] and 1 to 10 µM in experiment [2].

On to `COc1cc(C2CCNCC2)ccc1Nc1ncc2ccc(-c3ccccc3OC)n2n1` [Example 820, [7-(2-Methoxy-phenyl)-pyrrolo[2,1-f][1,2,4]triazin-2-yl]-(2-methoxy-4-piperidin-4-yl-phenyl)-amine], for which the IC50 in experiment [1] was less than 0.1 µM; in experiment [2], 0.1 to 1 µM.

In the case of `COc1cc(C2CCN(C(=O)C(C)(C)N)CC2)ccc1Nc1ncc2ccc(-c3ccccc3OC)n2n1` [Example 821, 2-Amino-1-(4-{3-methoxy-4-[7-(2-methoxy-phenyl)-pyrrolo[2,1-f][1,2,4]triazin-2-ylamino]-phenyl}-piperidin-1-yl)-2-methyl-propan-1-one], the IC50 in experiment [1] was less than 0.1 µM; in experiment [2], 0.1 to 1 µM.

Take `COc1cc(C2CCN(C(=O)C(C)(C)N)CC2)ccc1Nc1ncc2ccc(-c3ccccc3N(C)S(C)(=O)=O)n2n1` [Example 822, N-[2-(2-{4-[1-(2-Amino-2-methyl-propionyl)-piperidin-4-yl]-2-methoxy-phenylamino}-pyrrolo[2,1-f][1,2,4]triazin-7-yl)-phenyl]-N-methyl-methanesulfonamide]: the IC50 in experiment [1] is less than 0.1 µM; in experiment [2], 0.1 to 1 µM.

As to `COc1cc(C2CCN(C(=O)CN)CC2)ccc1Nc1ncc2ccc(-c3ccccc3OC)n2n1` [Example 823, 2-Amino-1-(4-{3-methoxy-4-[7-(2-methoxy-phenyl)-pyrrolo[2,1-f][1,2,4]triazin-2-ylamino]-phenyl}-piperidin-1-yl)-ethanone], the IC50 in experiment [1] was less than 0.1 µM; in experiment [2], 0.1 to 1 µM.

In the case of `COc1cc(C2CCN(C(=O)CN)CC2)ccc1Nc1ncc2ccc(-c3ccccc3N(C)S(C)(=O)=O)n2n1` [Example 824, N-[2-(2-{4-[1-(2-Amino-acetyl)-piperidin-4-yl]-2-methoxy-phenylamino}-pyrrolo[2,1-f][1,2,4]triazin-7-yl)-phenyl]-N-methyl-methanesulfonamide], the IC50 in experiment [1] was less than 0.1 µM; in experiment [2] it was 1 to 10 µM.

In the case of `COc1cc(C2CCN(C3COC3)CC2)ccc1Nc1ncc2ccc(-c3ccccc3OC)n2n1` [Example 827, [2-Methoxy-4-(1-oxetan-3-yl-piperidin-4-yl)-phenyl]-[7-(2-methoxy-phenyl)-pyrrolo[2,1-f][1,2,4]triazin-2-yl]-amine], the IC50 in experiment [1] was less than 0.1 µM; in experiment [2] it was 0.1 to 1 µM.

Regarding `COc1cc(C2CCN(C3COC3)CC2)ccc1Nc1ncc2ccc(-c3ccccc3N(C)S(C)(=O)=O)n2n1` [Example 828, N-(2-{2-[2-Methoxy-4-(1-oxetan-3-yl-piperidin-4-yl)-phenylamino]-pyrrolo[2,1-f][1,2,4]triazin-7-yl}-phenyl)-N-methyl-methanesulfonamide], the results for the IC50 in experiment [1] and in experiment [2] were less than 0.1 µM and 1 to 10 µM, respectively.

Regarding `COc1cc2c(cc1Nc1ncc3ccc(-c4ccccc4OC)n3n1)CN(C1COC1)C2` [Example 850, (6-Methoxy-2-oxetan-3-yl-2,3-dihydro-1H-isoindol-5-yl)-[7-(2-methoxy-phenyl)-pyrrolo[2,1-f][1,2,4]triazin-2-yl]-amine], the IC50 in experiment [1] and in experiment [2] was less than 0.1 µM each time.

As to `COc1ccccc1-c1ccc2cnc(Nc3ccc4c(c3OC)CN(C3COC3)C4)nn12` [Example 851, (4-Methoxy-2-oxetan-3-yl-2,3-dihydro-1H-isoindol-5-yl)-[7-(2-methoxy-phenyl)-pyrrolo[2,1-f][1,2,4]triazin-2-yl]-amine], the IC50 in experiment [1] and in experiment [2] was 0.1 to 1 µM in each case.

Take `COc1cc2c(cc1Nc1ncc3ccc(-c4ccccc4OC)n3n1)CN(C1CCN(C)CC1)C2` [Example 852, [6-Methoxy-2-(1-methyl-piperidin-4-yl)-2,3-dihydro-1H-isoindol-5-yl]-[7-(2-methoxy-phenyl)-pyrrolo[2,1-f][1,2,4]triazin-2-yl]-amine]: the IC50 in experiment [1] and in experiment [2] was less than 0.1 µM in each case.
